According to patent US9586959B2, “Substituted tricyclic heterocycles as histamine 4 receptor inhibitors” (C&C RESEARCH LABORATORIES, priority 2011, dated 2017):
pIC50: −log10 of the molar value. Values after ≈ are worked out from the molar mass of the structure shown. Structures can show the parent of a compound that is named as a salt.

What was measured:
[1] = molecular target: human histamine 4 receptor (hH4R) (Homo sapiens (Human), UniProt Q9H3N8); test: Binding affinity of human histamine 4 receptor (hH4R), [3H] labeled histamine displacement; conditions: hH4R-overexpressed cell membrane, [3H] histamine
Sequence of human histamine 4 receptor (hH4R) (Q9H3N8 whole entry): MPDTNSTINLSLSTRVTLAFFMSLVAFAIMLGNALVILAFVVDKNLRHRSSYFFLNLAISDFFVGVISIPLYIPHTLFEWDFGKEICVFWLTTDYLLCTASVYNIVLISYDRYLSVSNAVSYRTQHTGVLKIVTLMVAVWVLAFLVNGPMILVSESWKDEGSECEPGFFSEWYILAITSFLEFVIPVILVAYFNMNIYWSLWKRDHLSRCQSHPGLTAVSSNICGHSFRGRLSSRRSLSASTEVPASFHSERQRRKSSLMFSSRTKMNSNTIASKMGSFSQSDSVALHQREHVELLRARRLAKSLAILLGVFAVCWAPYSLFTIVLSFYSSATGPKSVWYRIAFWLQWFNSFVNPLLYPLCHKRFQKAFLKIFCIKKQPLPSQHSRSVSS
Experimental: 20 μL of the prepared compound solution was transferred to each well of a 96-well plate, and then 20 μL of 100 μM histamine diluted with analysis buffer solution and 1% DMSO were transferred to each well to calculate non-specific binding and total binding degree. 25 μg of human histamine 4 receptor-overexpressed cell membrane (PerkinElmer) was diluted into 160 μL of analysis buffer solution and that was transferred to each well. [^3H] labeled histamine (PerkinElmer) was diluted into 1 μM concentration, 20 μL was allocated in each well, and then it was kept in a 27° C. incubator for 30 minutes. After the reaction, 200 μL of the mixture was transferred to a glass fiber plate in which 0.5% polyethylene amine was presoaked, and then non-binding [^3H] labeled histamine was removed in vacuum. After 4 times washing with 200 μL of washing buffer solution (50 mM tris-HCl, pH 7.4), the plate was dried in a 37° C. oven for 18 hours. 100 μL of betascint cocktail solution was added to each well, and after 1 hour CPM (count per minute) value of [^3H] labeled histamine was measured by using Wallac beta-counter TriLux.

[2] = molecular target: human histamine 3 receptor (hH3R) (Homo sapiens (Human), UniProt Q9Y5N1); test: Binding affinity of human histamine 3 receptor (hH3R), [3H] labeled N-α-methylhistamine displacement; conditions: hH3R-overexpressed cell membrane, [3H] N-α-methylhistamine
Sequence of human histamine 3 receptor (hH3R) (Q9Y5N1 whole entry): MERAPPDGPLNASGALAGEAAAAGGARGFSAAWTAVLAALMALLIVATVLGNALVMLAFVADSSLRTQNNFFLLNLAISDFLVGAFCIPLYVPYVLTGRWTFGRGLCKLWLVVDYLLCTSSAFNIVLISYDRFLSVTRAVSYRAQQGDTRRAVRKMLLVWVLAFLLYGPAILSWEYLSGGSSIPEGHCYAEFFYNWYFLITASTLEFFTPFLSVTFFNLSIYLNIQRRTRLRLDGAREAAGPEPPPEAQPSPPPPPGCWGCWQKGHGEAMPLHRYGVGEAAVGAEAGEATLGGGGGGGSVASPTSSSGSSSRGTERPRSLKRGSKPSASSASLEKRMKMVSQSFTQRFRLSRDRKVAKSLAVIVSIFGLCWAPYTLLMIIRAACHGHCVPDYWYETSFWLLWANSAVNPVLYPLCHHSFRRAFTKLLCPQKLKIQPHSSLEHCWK
Experimental: 10 μL of the prepared compound solution was allocated in each well of a 96-well plate, and then 10 μL of 200 μM (R)(−)-α-methylhistamine (RaMH) diluted with analysis buffer and 1% of DMSO were transferred to each well to calculate non-specific binding and total binding degree. 15 μg of human histamine 3 receptor-overexpressed cell membrane (PerkinElmer) was diluted with 180 μL of analysis buffer solution (50 mM tris-HCl pH 7.4, 5 mM MgCl2), and that was transferred to each well. [^3H] labeled Na-methylhistamine (PerkinElmer) was diluted into […], 10 μL of that was added to each well, and then it was kept in a 27° C. incubator for 30 minutes. After the reaction, 200 μL of the mixture was transferred to a glass fiber plate in which 0.5% polyethylene amine was presoaked, and then non-binding [^3H] labeled Na-methylhistamine was removed in vacuum. After 5 times washing with 200 μL of washing buffer solution (50 mM tris-HCl, pH 7.4), the plate was dried in a 37° C. oven for 18 hours. 100 μL of betascint cocktail solution was added to each well, and after 1 hour CPM of [^3H] labeled N-α-methylhistamine was measured by using Wallac beta-counter TriLux. The binding affinity (IC50) of the human histamine 3 receptor for the present invention was analyzed by an Excel program, and the results of analysis are shown in Table 2.

[3] = Solubility in artificial gastrointestinal tract solution; type: physicochemical; conditions: artificial gastrointestinal tract solution, thermodynamic from solid; for solubility at 1 h: fassgf or other biorelevant, first solution pH 1.2, 2 mg/mL sample, 37° C. 1 hour; for solubility at 2 h: fassif, second solution pH 6.5, 2 mg/mL sample, 37° C. 2 hours
Experimental: 2.0 g of sodium chloride was added in 7.0 mL of 37% of hydrochloric acid and water to make the total volume of 1 L. The pH was adjusted to exactly 1.2 with 1N sodium hydroxide or 1N hydrochloric acid. A small amount (20 mL) of this solution was taken and added in 25 μL of triton X-100 to make the total volume of 25 mL.
0.348 g sodium hydroxide, 3.438 g NaH2PO4, 6.186 g sodium chloride and water were added to make the total volume of 1 L. The pH was adjusted to exactly 6.5 with 1N sodium hydroxide or 1N hydrochloric acid. A small amount (20 mL) of this solution was taken and 41.25 mg of sodium taurocholate hydrate and 25 μL of 750 mM lecithin dissolved in ethanol was added to make the total volume of 25 mL.
The heated test sample solutions were filtered to remove undissolved compounds therein. Finally, 100 μL of the completely compound-dissolved solution was sampled and 100 μL of CH3CN was added thereto to make the test sample solution. For each analysis of the test sample solution, the solubility was measured by using liquid chromatography.

SMILES | pIC50 [1] | pIC50 [2] | solubility at 1 h [3] [µg/mL] | solubility at 2 h [3] [µg/mL] | pIC50 ([1]; 2,2,2-trifluoroacetate)
C=Cc1cnc2nc(N3CC(NC)C3)c3nncn3c2c1 [Compound 55, N-Methyl-1-(8-vinylpyrido[2,3-e][1,2,4]triazolo[4,3-a]pyrazin-4-yl)azetidin-3-amine] | 6.59 | < 4.00 | – | – | –
CN1CCN(c2nc3ncc(Cl)cc3n3nnnc23)CC1 [Compound 94, 8-Chloro-4-(4-methylpiperazin-1-yl)pyrido[2,3-e]tetrazolo[1,5-a]pyrazine] | 7.21 | – | – | – | –
Cc1nc2nc(N3CCN(C)CC3)c3nncn3c2cc1Br [Compound 100, 8-bromo-7-methyl-4-(4-methylpiperazin-1-yl)pyrido[2,3-e][1,2,4]triazolo[4,3-a]pyrazine] | 6.64 | < 4.00 | – | – | –
CN1CCN(c2nc3ncc(Cl)cc3c3ncnn23)CC1 [Compound 35, 9-Chloro-5-(4-methylpiperazin-1-yl)pyrido[3,2-e][1,2,4]triazolo[1,5-c]pyrimidine] | 6.77 | – | – | – | –
CNC1CN(c2nc3ncc(Br)cc3n3cnnc23)C1.O=C(O)C(F)(F)F [Compound 104, 1-(8-bromopyrido[2,3-e][1,2,4]triazolo[4,3-a]pyrazin-4-yl)-N-methylazetidin-3-amine 2,2,2-trifluoroacetate] | – | < 4.00 | 1510 | 1560 | 7.52
CN1CCN(c2nc3nc(OCC(F)(F)F)c(Cl)cc3n3cnnc23)CC1 [Compound 64, 8-Chloro-4-(4-methylpiperazin-1-yl)-7-(2,2,2-trifluoroethoxy)pyrido[2,3-e][1,2,4]triazolo[4,3-a]pyrazine] | 6.62 | < 4.00 | – | – | –
CNC1CN(c2nc3ncc(Cl)cc3c3oc(C)nc23)C1 [Compound 91, 1-(8-Chloro-2-methyloxazolo[4,5-c][1,8]naphthylidine-4-yl)-N-methylazetidin-3-amine] | – | < 4.00 | 1840 (≈ 6.04 mM) | 1940 (≈ 6.4 mM) | –
CNC1CN(c2nc3ncc(Cl)c(Cl)c3n3cnnc23)C1 [Compound 67, 1-(8,9-Dichloropyrido[2,3-e][1,2,4]triazolo[4,3-a]pyrazin-4-yl)-N-methylazetidin-3-amine] | 6.50 | < 4.00 | – | – | –
Cc1c(Br)cnc2nc(N3CCN(C)CC3)c3nncn3c12 [Compound 66, 8-Bromo-9-methyl-4-(4-methylpiperazin-1-yl)pyrido[2,3-e][1,2,4]triazolo[4,3-a]pyrazine] | 6.52 | – | – | – | –
CCOc1nc2nc(N3CCNCC3)c3nncn3c2cc1Cl [Compound 63, 8-Chloro-7-ethoxy-4-(piperazin-1-yl)pyrido[2,3-e][1,2,4]triazolo[4,3-a]pyrazine] | 6.24 | < 4.00 | – | – | –
CCOc1nc2nc(N3CCN(C)CC3)c3nncn3c2cc1Cl [Compound 23, 8-Chloro-7-ethoxy-4-(4-methylpiperazin-1-yl)pyrido[2,3-e][1,2,4]triazolo[4,3-a]pyrazine] | 6.85 | < 4.00 | – | – | –
CNC1CN(c2nc3nc(C#N)c(Cl)cc3n3cnnc23)C1 [Compound 28, 8-Chloro-4-(3-(methylamino)azetidin-1-yl)pyrido[2,3-e][1,2,4]triazolo[4,3-a]pyrazin-7-carbonitrile] | 6.31 | < 4.00 | – | – | –
COc1nc2nc(N3CCN(C)CC3)c3nncn3c2cc1Cl [Compound 60, 8-Chloro-7-methoxy-4-(4-methylpiperazin-1-yl)pyrido[2,3-e][1,2,4]triazolo[4,3-a]pyrazine] | 6.21 | < 4.00 | – | – | –
Cc1nc2c(N3CCN(C)CC3)nc3ncc(Cl)cc3n2n1 [Compound 98, 8-Chloro-2-methyl-4-(4-methylpiperazin-1-yl)pyrido[2,3-e][1,2,4]triazolo[1,5-a]pyrazine] | 7.96 | – | 1700 (≈ 5.36 mM) | 1090 (≈ 3.44 mM) | –
CN1CCN(c2nc3ncc(Cl)cc3n3ccnc23)CC1 [Compound 46, 8-Chloro-4-(4-methylpiperazin-1-yl)imidazo[1,2-a]pyrido[2,3-e]pyrazine] | 6.81 | – | 1910 (≈ 6.32 mM) | 1100 (≈ 3.64 mM) | –
Ic1cnc2nc(N3CCN4CCCC4C3)c3nncn3c2c1 (stereo not shown) [Compound 75, 4-(Hexahydropyrrolo[1,2-a]pyrazin-2(1H)-yl)-8-iodopyrido[2,3-e][1,2,4]triazolo[4,3-a]pyrazine] | 7.19 | – | 2000 (≈ 4.76 mM) | 723 (≈ 1.72 mM) | –
Clc1cnc2nc(N3CCNCC3)c3nccn3c2c1 [Compound 47, 8-Chloro-4-(piperazin-1-yl)imidazo[1,2-a]pyrido[2,3-e]pyrazine] | 6.21 | – | – | – | –
CN1CCN(c2nc3ncc(Cl)cc3c3cn(C)nc23)CC1 [Compound 43, 8-Chloro-2-methyl-4-(4-methylpiperazin-1-yl)-2H-pyrazolo[3,4-c][1,8]naphthylidine] | 7.15 | 4.01 | – | – | –
CNC1CN(c2nc3ncc(C(F)F)cc3n3cnnc23)C1 [Compound 51, 1-(8-(Difluoromethyl)pyrido[2,3-e][1,2,4]triazolo[4,3-a]pyrazin-4-yl)-N-methylazetidin-3-amine] | 6.15 | < 4.00 | – | – | –
CNC1CN(c2nc3cnc(Cl)cc3n3cnnc23)C1 [Compound 117, 1-(8-chloropyrido[3,4-e][1,2,4]triazolo[4,3-a]pyrazin-4-yl)-N-methylazetidin-3-amine] | 6.68 | < 4.00 | – | – | –
Cc1cnc2nc(N3CCN(C)CC3)c3nncn3c2c1 [Compound 2, 8-Methyl-4-(4-methylpiperazin-1-yl)pyrido[2,3-e][1,2,4]triazolo[4,3-a]pyrazine] | 6.30 | < 4.00 | – | – | –
CNC1CN(c2nc3nc(O)c(Cl)cc3n3cnnc23)C1 [Compound 101, 8-chloro-4-(3-(methylamino)azetidin-1-yl)pyrido[2,3-e][1,2,4]triazolo[4,3-a]pyrazin-7-ol HCl salt] | – | < 4.00 | – | – | –
CN1CCCC2CN(c3nc4ncc(Cl)cc4n4cnnc34)CC21 (stereo not shown) [Compound 83, 8-Chloro-4-(1-methylhexahydro-1H-pyrrolo[3,4-b]pyridin-6(2H)-yl)pyrido[2,3-e][1,2,4]triazolo[4,3-a]pyrazine] | – | < 4.00 | – | – | –
CN1CCN(c2nc3ncc(Br)cc3n3nnnc23)CC1 [Compound 96, 8-Bromo-4-(4-methylpiperazin-1-yl)pyrido[2,3-e]tetrazolo[1,5-a]pyrazine] | 7.55 | – | – | – | –
Cc1nnc2c(N3CCNCC3)nc3ncc(Cl)cc3n12 [Compound 15, 8-Chloro-1-methyl-4-(piperazin-1-yl)pyrido[2,3-e][1,2,4]triazolo[4,3-a]pyrazine] | – | < 4.00 | – | – | –
CN1CC2CN(c3nc4ncc(Br)cc4n4cnnc34)CC2C1 (stereo not shown) [Compound 71, 8-Bromo-4-(5-methylhexahydropyrrolo[3,4-c]pyrrole-2(1H)-yl)pyrido[2,3-e][1,2,4]triazolo[4,3-a]pyrazine] | – | < 4.00 | – | – | –
Brc1cnc2nc(N3CCN4CCCC4C3)c3nncn3c2c1 (stereo not shown) [Compound 74, 8-Bromo-4-(hexahydropyrrolo[1,2-a]pyrazin-2(1H)-yl)pyrido[2,3-e][1,2,4]triazolo[4,3-a]pyrazine] | 7.22 | – | 1530 (≈ 4.08 mM) | 646 (≈ 1.73 mM) | –
CN1CCN(c2nc3ncc(I)cc3n3cnnc23)CC1 [Compound 49, 8-Iodo-4-(4-methylpiperazin-1-yl)pyrido[2,3-e][1,2,4]triazolo[4,3-a]pyrazine] | 7.47 | < 4.00 | – | – | –
CNC1CN(c2nc3ncc(Cl)cc3n3nc(C)nc23)C1 [Compound 97, 1-(8-Chloro-2-methylpyrido[2,3-e][1,2,4]triazolo[1,5-a]pyrazin-4-yl)-N-methylazetidin-3-amine] | – | 4.06 | – | – | –
